Laboratory results from ChEMBL document CHEMBL2396543, “Development of time resolved fluorescence resonance energy transfer-based assay for FXR antagonist discovery” (Bioorg Med Chem, 2013).
Activity calls are given as the source filed them. No cut-off for these calls is given here.

How the values were obtained:
[1] = molecular target: T1, Bile acid receptor (Homo sapiens) (UniProt Q96RI1); assay: Binding affinity to human GTS-tagged FXR LBD using fluorescein-tagged SRC2-2 at 10 nM after 15 to 30 mins by TR-FRET assay
T1 sequence (whole entry): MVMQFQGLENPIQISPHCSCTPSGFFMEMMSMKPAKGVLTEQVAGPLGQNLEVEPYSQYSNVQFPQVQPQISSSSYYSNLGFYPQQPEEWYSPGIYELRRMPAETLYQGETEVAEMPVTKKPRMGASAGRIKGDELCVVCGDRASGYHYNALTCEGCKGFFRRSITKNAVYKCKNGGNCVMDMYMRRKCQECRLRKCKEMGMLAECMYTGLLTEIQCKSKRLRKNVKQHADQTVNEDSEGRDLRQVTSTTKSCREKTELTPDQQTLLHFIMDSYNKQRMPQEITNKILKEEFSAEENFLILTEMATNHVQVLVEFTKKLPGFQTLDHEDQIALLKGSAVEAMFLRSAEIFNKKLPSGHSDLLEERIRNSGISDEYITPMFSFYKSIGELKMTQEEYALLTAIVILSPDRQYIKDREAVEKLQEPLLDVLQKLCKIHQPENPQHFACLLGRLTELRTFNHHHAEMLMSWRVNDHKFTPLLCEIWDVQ

[2] = molecular target: T1, Bile acid receptor (Homo sapiens); assay: Binding affinity to human GTS-tagged FXR LBD using fluorescein-tagged SRC2-2 at 10 nM after 15 to 30 mins by TR-FRET assay in presence of GW4064
[3] = molecular target: T1, Bile acid receptor (Homo sapiens); assay: Binding affinity to human GTS-tagged FXR LBD using fluorescein-tagged SRC2-2 at 10 nM after 15 to 30 mins by TR-FRET assay in presence of fexaramine

- Activity [1]: Active
- Activity [2]: Active
- Activity [3]: Active
Compound: CC(C)c1onc(-c2c(Cl)cccc2Cl)c1COc1ccc(/C=C/c2cccc(C(=O)NNC(=S)Nc3ccc(-c4c5ccc(=O)cc-5oc5cc(O)ccc45)c(C(=O)O)c3)c2)c(Cl)c1
